Here are results for one compound from US20250161273A1, “PHARMACEUTICAL COMPOSITION COMPRISING DIPHENYLDIAZOLE DERIVATIVES AND METHODS OF USE” (MODAG GMBH, priority 2022, published 2025).

Series [1] is described as follows: phase 1 first-in-human trial, food effect study (FES) PK. It counts as in vivo. The conditions noted are these: for AUC(0-t) / Cmax / half-life / Tmax: 150 mg; for half-life: read-out: T1/2 (geometric mean) (converted). How it is done:
Anle138b was studied in a single-centre, double-blind, randomised, placebo-controlled single ascending dose (SAD) and multiple ascending dose (MAD) study in healthy subjects. Eligible participants were randomly assigned (1:1 for sentinel subjects and 1:5 for main group) to placebo or anle138b (dose ranging from 50 mg to 300 mg per day), respectively. In addition, the effect of food on the pharmacokinetics (PK) of anle138b in healthy subjects was examined at doses of 150 mg per day (FES, food effect study). Participants were randomized to treatment sequence (fed→fasted) or (fasted→fed). Treatment for the SAD, MAD and FES arms of the study was administered orally in hard gelatin capsules containing either 10 mg or 30 mg of anle138b with excipient (i.e., lauroyl polyoxyl-32 glycerides) or excipient only. The primary endpoints were safety and tolerability, the secondary endpoint was pharmacokinetics. Data from all randomized individuals were evaluated. [Clinicaltrials.gov-identifier: NCT04208152. EudraCT-number: 2019-004218-33]
This dose was administered either i) after a standard FDA-approved high-fat breakfast or ii) in the fasted state, i.e., fasted from all food and drink (except water) for a minimum of 8 h prior to dosing. In total, one cohort of 12 subjects was randomised in a 1:1 ratio to 2 treatment sequences (fed→fasted) or (fasted→fed). A minimum washout of at least 5 half-lives of anle138b between each dose was assured.
Secondary outcome measures were the oral PK of single (SAD) and multiple (MAD) ascending doses of anle138b in the fasted state as well as the effect of co-administration with food on the PK of anle138b. To this end PK blood samples were taken at day 1 (and for MAD day 7) pre-dose and at 0.5, 1, 1.5, 2, 3, 4, 6, 8, 10, 12, 16 and 20 h post-administration, at days 2 to 6 pre-dose only (MAD) and 24, 30, 36 and 48 h post final dose. Analysis of anle138b in plasma was done at Aptuit. Time point of last quantifiable data was seen to increase with an increase in dose as follows: SAD: from the 50 mg dose (subjects ranged between 8-24 h) to the 300 mg dose (subjects ranged between 36-48 h). MAD: from the 100 mg dose (subjects ranged between 8-36 h) to the 300 mg dose (subjects ranged between 20-48 h). In FES, subjects ranged between 24-48 h.
where μ=[…] is the intercept and β is the slope from the linear model. Using this model it is possible to estimate β (measure of dose proportionality) and obtain 90% confidence interval (CI) for β (Gough, 1995; Smith, 2000). The estimate of β together with its 90% CI (βI, βu) was used to quantify the degree of non-proportionality. In MAD, formal statistical analysis was performed on the PK parameters AUC0-tau and Cmax to assess dose accumulation. Log-transformed AUC0-tau and Cmax was subjected to a mixed-effects model with treatment (dose level), day (day 1 or 7) and treatment-by-day interaction as fixed effects and subject as a random effect. The adjusted means obtained from the model, including differences for each comparison of interest and the associated 90% CIs, was back-transformed on the log scale to obtain adjusted geometric means, adjusted geometric mean ratios (GMRs) and 90% CIs of the ratio. The GMRs and 90% CIs were provided for each treatment and overall, i.e., day 7/day 1. In the FES, formal statistical analysis was performed on the PK parameters Cmax, AUC0-last and AUC0-24 to assess the effects of food on anle138b. The PK parameters underwent a natural logarithmic transformation and were analysed using a mixed-effect model with terms for treatment (i.e., prandial state), period and sequence as fixed effects and subject nested within sequence as a random effect. Adjusted GMRs and 90% CIs for the adjusted GMRs for the comparison between fed and fasted states were provided where the ratios are defined as fed/fasted.

The subject of the next series is oligomer accumulation. The conditions noted are these: range of different mouse models; cited from earlier work.

Where two headings read alike, the source gives them in different places.

As to `Brc1cccc(-c2cc(-c3ccc4c(c3)OCO4)n[nH]2)c1` [anle138b, 3-(1,3-benzodioxol-5-yl)-5-(3-bromophenyl)-1H-pyrazole], the “effect of food on Cmax (in words)” value in series [1] (150 mg single dose, fed vs fasted) was “decreased by about half”. The AUC(0-t) in series [1] (human, plasma, oral, 150 mg single dose, fasted, read-out: AUC0-24 range) was 433 to 2720 ng·h/mL; in series [1] (human, plasma, oral, 150 mg single dose, fed, read-out: AUC0-24 range), 378 to 1920 ng·h/mL; in series [1] (human, plasma, po, healthy volunteers, single oral 150 mg, fasted, read-out: AUC(0-24) (geometric mean)), roughly 896 ng·h/mL; in series [1] (human, plasma, po, healthy volunteers, single oral 150 mg, fasted, read-out: AUC(0-last) (geometric mean)), 888 ng·h/mL; in series [1] (human, plasma, po, healthy volunteers, single oral 150 mg, fed, read-out: AUC(0-24) (geometric mean)), roughly 641 ng·h/mL; in series [1] (human, plasma, po, healthy volunteers, single oral 150 mg, fed, read-out: AUC(0-last) (geometric mean)), 668 ng·h/mL. Moreover, the Cmax in series [1] (human, plasma, oral, 150 mg single dose, fasted, read-out: Cmax range) is 225 to 1420 ng/mL; in series [1] (human, plasma, oral, 150 mg single dose, fed, read-out: Cmax range), 110 to 479 ng/mL; in series [1] (human, plasma, po, healthy volunteers, single oral 150 mg, fasted, read-out: Cmax (geometric mean)), roughly 442 ng/mL; in series [1] (human, plasma, po, healthy volunteers, single oral 150 mg, fed, read-out: Cmax (geometric mean)), roughly 196 ng/mL. In series [1] (human, plasma, oral, 150 mg single dose, 90% CI: 61%, 84%, read-out: dose bioavailable in the fed state compared to the fasted state), the bioavailability is roughly 74%. Moreover, the half-life in series [1] (human, plasma, po, healthy volunteers, single oral 150 mg, fasted) was 11.3 h; in series [1] (human, plasma, po, healthy volunteers, single oral 150 mg, fed), 15.2 h. The Tmax in series [1] (human, plasma, po, healthy volunteers, single oral 150 mg, fasted, read-out: Tmax (median)) is 1.25 h; in series [1] (human, plasma, po, healthy volunteers, single oral 150 mg, fasted, read-out: Tmax (range)) it was 1 to 2 h; in series [1] (human, plasma, po, healthy volunteers, single oral 150 mg, fed (high-fat breakfast), read-out: Tmax (median)), 3 h; in series [1] (human, plasma, po, healthy volunteers, single oral 150 mg, fed (high-fat breakfast), read-out: Tmax (range)), 1.5 to 3 h. For the same compound, the “ratio of fasted AUC(0-24) to fed AUC(0-24)” value in series [1] (single dose, healthy subject) is recorded as “less than 1.5”. The “effect in mouse models in vivo (in words)” value in the series on oligomer accumulation was “strongly inhibited oligomer accumulation, neuronal degeneration, and disease progression”.
